Assay results from US20240299300A1, “LIPOSOME VITAMIN C PREPARATION” (priority 2023, published 2024).

Test system: H9 cells, a human T-cell line
Test: Vitamin C uptake in H9 T-cells
Type: cell-based
Details: 50 μM
Description: At the times indicated in FIG. 13, cells were harvested and measured for vitamin C and protein content. The cellular vitamin C levels of the cells were measured.

O=C1O[C@H]([C@@H](O)CO)C(O)=C1O [nonliposomal vitamin C, ascorbic acid]
cellular vitamin C level (peak) (approximately two hours): 20 nmol/mg protein | cellular vitamin C level (fifteen minutes): 6±1.4 nmol/mg protein
